Results reported in publication PMC10762035, “Molecular basis of human trace amine-associated receptor 1 activation” (Nature Communications, 2024).
Where a chain is given by its changes, count along the chain named. Where “and” joins values, the source holds several entries; their conditions need not be identical. Identical values can stand only once. Like-named read-outs stand apart in the source and are kept apart here.

Assays:
Assay type in all cases: cell-based
hTA1 F195T = molecular target: T1, hTA1 F195T (Homo sapiens, UniProt Q96RJ0, F195T); assay: GloSensor cAMP accumulation assay, F195T mutant;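 note: cells transiently co-expressing HA-FLAG-tagged hTA1 and the GloSensor cAMP biosensor, luminescence read 30 min after agonist addition at room temperature, concentration-response fitted by nonlinear regression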
T1 construct: expressed in transfected cells; host or cells: HEK293T
T1 sequence (Q96RJ0 1-339 F195T): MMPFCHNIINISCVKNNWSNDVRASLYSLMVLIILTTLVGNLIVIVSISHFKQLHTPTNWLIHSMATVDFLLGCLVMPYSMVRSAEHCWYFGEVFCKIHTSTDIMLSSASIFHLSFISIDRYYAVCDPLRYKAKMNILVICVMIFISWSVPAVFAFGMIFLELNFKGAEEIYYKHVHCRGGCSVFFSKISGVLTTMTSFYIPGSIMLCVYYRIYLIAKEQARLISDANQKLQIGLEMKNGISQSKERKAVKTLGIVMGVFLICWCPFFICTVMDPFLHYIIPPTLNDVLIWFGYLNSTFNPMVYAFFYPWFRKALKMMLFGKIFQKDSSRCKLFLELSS

hTA1 = molecular target: T2, hTA1 (Homo sapiens, UniProt Q96RJ0); assay: Screen of 89 aminergic compounds at 10 µM, cAMP accumulation in HEK293T cells; conditions: 10 µM of compound; HEK293T; threshold log2-fold change of 2;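 note: HEK293T cells co-transfected with hTA1 and GloSensor cAMP reporter, cAMP accumulation detected by luminescence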
T2 construct: expressed in transfected cells; host or cells: HEK293T
T2 sequence (Q96RJ0 1-339): T1 sequence (Q96RJ0 1-339 F195T) with T195F

[1] = molecular target: T3, β2AR-Nterm-hTA1-F112^3.41W (CryoEM Construct) (Homo sapiens, UniProt Q96RJ0, F112W); assay: GloSensor cAMP accumulation assay, cryoEM construct;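 note: cells transiently co-transfected with the receptor construct and GloSensor cAMP biosensor, luminescence read after 30 min compound exposure at room temperature in the dark as cAMP accumulation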;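 for Normalized Luminescence Counts (N=2): normalized to the maximum response of β-PEA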
T3 construct: FLAG (N); 10xHis (N); TEV protease site (N); expressed in transfected cells; host or cells: HEK293T
T3 sequence (Q96RJ0 with tags, fused parts or gaps F112W): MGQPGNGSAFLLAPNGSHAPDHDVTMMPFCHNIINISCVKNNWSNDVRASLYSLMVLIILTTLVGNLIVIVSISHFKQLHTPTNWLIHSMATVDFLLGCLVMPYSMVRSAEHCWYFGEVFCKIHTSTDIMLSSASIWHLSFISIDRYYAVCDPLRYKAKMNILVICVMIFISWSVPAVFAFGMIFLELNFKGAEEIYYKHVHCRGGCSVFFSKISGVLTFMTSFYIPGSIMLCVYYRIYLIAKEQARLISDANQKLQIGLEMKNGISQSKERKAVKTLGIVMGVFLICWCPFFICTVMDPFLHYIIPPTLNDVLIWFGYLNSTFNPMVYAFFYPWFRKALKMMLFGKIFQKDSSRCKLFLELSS

hTA1 R83H = molecular target: T4, hTA1 R83H (Homo sapiens, UniProt Q96RJ0, R83H); assay: GloSensor cAMP accumulation assay, R83H mutant;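 note: cells transiently co-expressing hTA1 and a cAMP GloSensor, luminescence read 30 min after agonist addition at room temperature, concentration–response fitted by non-linear regression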
T4 construct: expressed in transfected cells; host or cells: HEK293T
T4 sequence (Q96RJ0 1-339 R83H): T1 sequence (Q96RJ0 1-339 F195T) with R83H, T195F

hTA1 S107C = molecular target: T5, hTA1 S107C (Homo sapiens, UniProt Q96RJ0, S107C); assay: GloSensor cAMP accumulation assay, S107C mutant;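 note: cells transiently co-expressing receptor and GloSensor biosensor, luminescence read after 30 min agonist exposure at room temperature, concentration-response fitted by nonlinear regression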
T5 construct: expressed in transfected cells; host or cells: HEK293T
T5 sequence (Q96RJ0 1-339 S107C): T1 sequence (Q96RJ0 1-339 F195T) with S107C, T195F

[2] = CryoEM Construct, n=2, read-out: EC50
[3] = Cryo EM Construct, mean of each independent experiment (3 replicates)

Question: Which results are given for `CN1CC2c3ccccc3Oc3ccc(Cl)cc3C2C1` (stereo not shown) [asenapine]?
Answer: increase in potency vs wild type (hTA1 F195T; F195T): 3 fold; ΔpEC50 values (each mutant value - WT average), Mean (hTA1 F195T; F195T, Asenapine): -0.004135 and 0.1049; Emax values, Mean (hTA1 F195T; F195T, Asenapine, per experiment, 3 replicates): 90.8432 and 72.9114; EC50 (hTA1 F195T; F195T, Asenapine, per experiment, 3 replicates, read-out: pEC50 values Mean (converted)): 87.4 nM and 68 nM; EC50 (hTA1 F195T; F195T, n=2, read-out: EC50): 77.1 nM; Emax (hTA1 F195T; F195T, n=2, read-out: Span ± SEM (Emax normalized to β-PEA)): 81.9 ± 8.97%; increase of signal over DMSO-treated controls (hTA1 activation) (hTA1): ≥ 4 fold; EC50 [1, 2]: 51.8 nM; Emax ([1]; CryoEM Construct, n=2, read-out: Span ± SEM (Emax normalized to β-PEA)): 95.2 ± 1.98%; EC50 ([1]; CryoEM Construct, n=2, read-out: pEC50 ± SEM (converted)): 52.5 nM; ΔpEC50 values (each mutant value - WT average), Mean (hTA1 R83H; R83H, Asenapine): -1.278 and -1.426; Emax values, Mean (hTA1 R83H; R83H, Asenapine, per experiment, 3 replicates): 22.9611 and 11.3307; EC50 (hTA1 R83H; R83H, Asenapine, per experiment, 3 replicates, read-out: pEC50 values Mean (converted)): 1640 nM and 2310 nM; EC50 (hTA1 R83H; R83H, n=2, read-out: EC50): 1950 nM; Emax (hTA1 R83H; R83H, n=2, read-out: Span ± SEM (Emax normalized to β-PEA)): 17.1 ± 5.82%; Emax values, Mean (hTA1 S107C; S107C, Asenapine, per experiment, 3 replicates): 91.6842 and 105.217; EC50 (hTA1 S107C; S107C, Asenapine, per experiment, 3 replicates, read-out: pEC50 values Mean (converted)): 383 nM and 996 nM; EC50 (hTA1 S107C; S107C, n=2, read-out: EC50): 618 nM; Emax (hTA1 S107C; S107C, n=2, read-out: Span ± SEM (Emax normalized to β-PEA)): 98.5 ± 6.76%

Question: With `NCCc1ccccc1` [β-PEA, β-phenethylamine] as the molecule, how does the “increase in potency vs wild type” value (hTA1 F195T; F195T) read?
Answer: The value was ~ 3.5 fold.

Question: What about the “ΔpEC50 values (each mutant value - WT average), Mean” value (hTA1 F195T; F195T mutant minus WT average, Figure 5B) of the same molecule?
Answer: The value was 0.6087 and 0.4606.

Question: And the “pEC50 values, Mean” value (hTA1 F195T; F195T mutant, Figure 5B, each row one independent experiment (3 replicates))?
Answer: Its value is 7.7022 and 7.554.

Question: And the “Emax values, Mean” value (hTA1 F195T; F195T mutant, Figure 5B, β-PEA = 100, each row one independent experiment (3 replicates))?
Answer: The value was 100.

Question: What about the “Span ± SEM (Emax normalized to β-PEA)” value (hTA1 F195T; F195T, n=2) of the same molecule?
Answer: The value was 100.

Question: What about the “pEC50 ± SEM” value (hTA1 F195T; F195T, n=2) of the same molecule?
Answer: The value was 7.63 ± 0.07.

Question: And the EC50 (hTA1 F195T; F195T, n=2, read-out: EC50)?
Answer: Its EC50 is 23.5 nM.

Question: And the “increase of signal over DMSO-treated controls (hTA1 activation)” value (hTA1)?
Answer: The value was at least 4 fold.

Question: And the “ΔEmax values (each mutant value - WT average), Mean” value ([1]; Cryo EM Construct minus WT average)?
Answer: Its value is 0.

Question: And the “Emax values, Mean” value [1, 3]?
Answer: Its value is 0.8322.

Question: What about the “pEC50 values, Mean” value [1, 3] of the same molecule?
Answer: The value was 7.553 and 7.926.

Question: What about the “Normalized Luminescence Counts (N=2)” value ([1]; CryoEM Construct, log[Compound], M = -5, single replicates) of the same molecule?
Answer: Its value is 99.4824 and 93.6783 and 105.677 and 107.109.

Question: And the “Span ± SEM (Emax normalized to β-PEA)” value ([1]; CryoEM Construct, n=2)?
Answer: Its value is 100 ± 1.84.

Question: What about the “pEC50 ± SEM” value ([1]; CryoEM Construct, n=2) of the same molecule?
Answer: Its value is 7.75 ± 0.04.

Question: And the EC50 [1, 2]?
Answer: Its EC50 is 17.4 nM.

Question: And the “ΔEmax values (each mutant value - WT average)” value (hTA1 R83H; R83H mutant minus WT average)?
Answer: The value was 0.

Question: And the “ΔpEC50 values (each mutant value - WT average)” value (hTA1 R83H; R83H mutant minus WT average)?
Answer: The value was -1.391 and -1.424.

Question: And the “pEC50 values, Mean” value (hTA1 R83H; R83H mutant, each line an independent experiment, 3 replicates)?
Answer: The value was 5.702 and 5.67.

Question: What about the “Emax values, Mean” value (hTA1 R83H; R83H mutant, β-PEA = 100, each line an independent experiment, 3 replicates) of the same molecule?
Answer: Its value is 100.

Question: What about the “Span ± SEM (Emax normalized to β-PEA)” value (hTA1 R83H; R83H, n=2) of the same molecule?
Answer: The value was 100 ± 5.46.

Question: And the “pEC50 ± SEM” value (hTA1 R83H; R83H, n=2)?
Answer: Its value is 5.69 ± 0.07.

Question: And the EC50 (hTA1 R83H; R83H, n=2, read-out: EC50)?
Answer: Its EC50 is 2060 nM.

Question: What about the “ΔEmax values (each mutant value - WT average)” value (hTA1 S107C; S107C mutant minus WT average) of the same molecule?
Answer: Its value is 0.

Question: What about the “Emax values, Mean” value (hTA1 S107C; S107C mutant, β-PEA = 100, each line an independent experiment, 3 replicates) of the same molecule?
Answer: Its value is 100.

Question: And the “Span ± SEM (Emax normalized to β-PEA)” value (hTA1 S107C; S107C, n=2)?
Answer: The value was 100 ± 3.55.

Question: And the “pEC50 ± SEM” value (hTA1 S107C; S107C, n=2)?
Answer: The value was 6.69 ± 0.71.

Question: What about the EC50 (hTA1 S107C; S107C, n=2, read-out: EC50) of the same molecule?
Answer: The EC50 was 205 nM.
